Literature values in US4717569A, “Unit dosage form of sparingly soluble medicaments” (Sterling Drug Inc., priority 1984, dated 1988).

Legend:
pituitary gonadotrophins = conditions: in patients, background
[1] = in patients, background
[2] = pH 6.0-7.0, intestinal juices

SMILES | effect on pituitary gonadotrophins (pituitary gonadotrophins) | oestrogenic or progestational activity [1] | solubility at intestinal pH [2]
C#C[C@]1(O)CC[C@H]2[C@@H]3CCC4=Cc5oncc5C[C@]4(C)[C@H]3CC[C@@]21C [Compound A, 17α-pregna-2,4-diene-20-yno[2,3-d]isoxazol-17-ol] | inhibits the synthesis or release of pituitary gonadotrophins | without exhibiting oestrogenic or progestational activity | 
OCCN(CCO)c1nc(N2CCCCC2)c2nc(N(CCO)CCO)nc(N3CCCCC3)c2n1 [dipyridamole] |  |  | insoluble
